{
  "source": "patent US11419852B2",
  "about": "“Beta-lactam compounds or salts thereof for use in long-acting prevention or treatment of a glucose metabolism disorder” (GLYCOLYSIS BIOMED CO., LTD., priority 2019, dated 2022)",
  "test_system": "db/db mice",
  "test": "Oral glucose tolerance test (OGTT)",
  "assay_type": "in vivo",
  "set-up": "OGTT AUC: unit not given here",
  "conditions": "dosing 6 weeks",
  "protocol": "Four to five weeks old db/db mice (BKS.Cg-Dock7^m+/+Lepr^db/JNarl) and m/m mice (BKS.Cg-Dock7^m+/Dock7^m+) were obtained from National Laboratory Animal Center ([…], Taiwan). […] PMI Nutrition International, Brentwood, Mo.) and water ad libitum. […] Blood was sampled from the tail vein, and FPG levels were measured and recorded as the basic blood glucose levels. […] The total area under the curve (AUC) in OGTT was plotted and calculated by the Area Under Coordinates Program (StatsToDo Server, Department of Obstetrics and Gynecology, Chinese University of Hong Kong).",
  "note": "Marks after values point to notes of the source that are not given here.",
  "data": [
    {"molecule": "C[C@@H](O)[C@H]1C(=O)N2C(C(=O)O)=C(S[C@@H]3CN[C@H](C(=O)Nc4cccc(C(=O)O)c4)C3)[C@H](C)[C@H]12", "note": "[DMH, ertapenem]", "values": [
      {"measurement": "Level of OGTT (blood glucose)", "setting": "Ex 2 G4 db/db, DMH i.p. 0.1 mg/g bw/day, Week 6, 60 min", "result": "486 ± 57", "unit": "mg/dL"},
      {"measurement": "Level of OGTT (blood glucose)", "setting": "Ex 2 G4 db/db, DMH i.p. 0.1 mg/g bw/day, Week 6, 120 min", "result": "286 ± 44^bc"},
      {"measurement": "Level of OGTT (blood glucose)", "setting": "Ex 2 G4 db/db, DMH i.p. 0.1 mg/g bw/day, Week 12, 0 min", "result": "154 ± 30^ab"},
      {"measurement": "Level of OGTT (blood glucose)", "setting": "Ex 2 G4 db/db, DMH i.p. 0.1 mg/g bw/day, Week 12, 15 min", "result": "866 ± 36", "unit": "mg/dL"},
      {"measurement": "Level of OGTT (blood glucose)", "setting": "Ex 2 G4 db/db, DMH i.p. 0.1 mg/g bw/day, Week 12, 30 min", "result": "794 ± 60^bc"},
      {"measurement": "Level of OGTT (blood glucose)", "setting": "Ex 2 G4 db/db, DMH i.p. 0.1 mg/g bw/day, Week 12, 60 min", "result": "503 ± 67", "unit": "mg/dL"},
      {"measurement": "Level of OGTT (blood glucose)", "setting": "Ex 2 G4 db/db, DMH i.p. 0.1 mg/g bw/day, Week 12, 120 min", "result": "372 ± 83", "unit": "mg/dL"},
      {"measurement": "Level of OGTT (blood glucose)", "setting": "Ex 2 G4 db/db, DMH i.p. 0.1 mg/g bw/day, Week 16, 0 min", "result": "126 ± 43^ab"},
      {"measurement": "Level of OGTT (blood glucose)", "setting": "Ex 2 G4 db/db, DMH i.p. 0.1 mg/g bw/day, Week 16, 15 min", "result": "575 ± 44", "unit": "mg/dL"},
      {"measurement": "Level of OGTT (blood glucose)", "setting": "Ex 2 G4 db/db, DMH i.p. 0.1 mg/g bw/day, Week 16, 30 min", "result": "609 ± 39^c"},
      {"measurement": "Level of OGTT (blood glucose)", "setting": "Ex 2 G4 db/db, DMH i.p. 0.1 mg/g bw/day, Week 16, 60 min", "result": "506 ± 52^c"},
      {"measurement": "Level of OGTT (blood glucose)", "setting": "Ex 2 G4 db/db, DMH i.p. 0.1 mg/g bw/day, Week 16, 120 min", "result": "270 ± 65^bd"},
      {"measurement": "Level of OGTT (blood glucose)", "setting": "Ex 2 G4 db/db, DMH i.p. 0.1 mg/g bw/day, Week 18, 0 min", "result": "263 ± 58", "unit": "mg/dL"},
      {"measurement": "Level of OGTT (blood glucose)", "setting": "Ex 2 G4 db/db, DMH i.p. 0.1 mg/g bw/day, Week 18, 15 min", "result": "785 ± 57", "unit": "mg/dL"},
      {"measurement": "Level of OGTT (blood glucose)", "setting": "Ex 2 G4 db/db, DMH i.p. 0.1 mg/g bw/day, Week 18, 30 min", "result": "894 ± 49", "unit": "mg/dL"},
      {"measurement": "Level of OGTT (blood glucose)", "setting": "Ex 2 G4 db/db, DMH i.p. 0.1 mg/g bw/day, Week 18, 60 min", "result": "735 ± 47", "unit": "mg/dL"},
      {"measurement": "Level of OGTT (blood glucose)", "setting": "Ex 2 G4 db/db, DMH i.p. 0.1 mg/g bw/day, Week 18, 120 min", "result": "447 ± 53", "unit": "mg/dL"},
      {"measurement": "OGTT AUC", "setting": "Ex 2 G4 db/db, DMH i.p. 0.1 mg/g bw/day, week 6", "result": "1033 ± 87^b"},
      {"measurement": "OGTT AUC", "setting": "Ex 2 G4 db/db, DMH i.p. 0.1 mg/g bw/day, week 12", "result": "1096 ± 119^b"},
      {"measurement": "OGTT AUC", "setting": "Ex 2 G4 db/db, DMH i.p. 0.1 mg/g bw/day, week 16", "result": "902 ± 85^b"},
      {"measurement": "OGTT AUC", "setting": "Ex 2 G4 db/db, DMH i.p. 0.1 mg/g bw/day, week 18", "result": "1339 ± 80^b"},
      {"measurement": "Level of OGTT (blood glucose)", "setting": "Ex 2 G5 db/db, DMH i.p. 0.2 mg/g bw/day, Week 6, 0 min", "result": "166 ± 21", "unit": "mg/dL"},
      {"measurement": "Level of OGTT (blood glucose)", "setting": "Ex 2 G5 db/db, DMH i.p. 0.2 mg/g bw/day, Week 6, 15 min", "result": "750 ± 57", "unit": "mg/dL"},
      {"measurement": "Level of OGTT (blood glucose)", "setting": "Ex 2 G5 db/db, DMH i.p. 0.2 mg/g bw/day, Week 6, 30 min", "result": "618 ± 68", "unit": "mg/dL"},
      {"measurement": "Level of OGTT (blood glucose)", "setting": "Ex 2 G5 db/db, DMH i.p. 0.2 mg/g bw/day, Week 6, 60 min", "result": "425 ± 63", "unit": "mg/dL"},
      {"measurement": "Level of OGTT (blood glucose)", "setting": "Ex 2 G5 db/db, DMH i.p. 0.2 mg/g bw/day, Week 6, 120 min", "result": "316 ± 92^bc"},
      {"measurement": "Level of OGTT (blood glucose)", "setting": "Ex 2 G5 db/db, DMH i.p. 0.2 mg/g bw/day, Week 12, 0 min", "result": "191 ± 42^bc"},
      {"measurement": "Level of OGTT (blood glucose)", "setting": "Ex 2 G5 db/db, DMH i.p. 0.2 mg/g bw/day, Week 12, 15 min", "result": "879 ± 45", "unit": "mg/dL"},
      {"measurement": "Level of OGTT (blood glucose)", "setting": "Ex 2 G5 db/db, DMH i.p. 0.2 mg/g bw/day, Week 12, 30 min", "result": "790 ± 40^bc"},
      {"measurement": "Level of OGTT (blood glucose)", "setting": "Ex 2 G5 db/db, DMH i.p. 0.2 mg/g bw/day, Week 12, 60 min", "result": "548 ± 69", "unit": "mg/dL"},
      {"measurement": "Level of OGTT (blood glucose)", "setting": "Ex 2 G5 db/db, DMH i.p. 0.2 mg/g bw/day, Week 12, 120 min", "result": "440 ± 81^bc"},
      {"measurement": "Level of OGTT (blood glucose)", "setting": "Ex 2 G5 db/db, DMH i.p. 0.2 mg/g bw/day, Week 16, 0 min", "result": "154 ± 56^ab"},
      {"measurement": "Level of OGTT (blood glucose)", "setting": "Ex 2 G5 db/db, DMH i.p. 0.2 mg/g bw/day, Week 16, 15 min", "result": "619 ± 48", "unit": "mg/dL"},
      {"measurement": "Level of OGTT (blood glucose)", "setting": "Ex 2 G5 db/db, DMH i.p. 0.2 mg/g bw/day, Week 16, 30 min", "result": "686 ± 34^bc"},
      {"measurement": "Level of OGTT (blood glucose)", "setting": "Ex 2 G5 db/db, DMH i.p. 0.2 mg/g bw/day, Week 16, 60 min", "result": "551 ± 52^bc"},
      {"measurement": "Level of OGTT (blood glucose)", "setting": "Ex 2 G5 db/db, DMH i.p. 0.2 mg/g bw/day, Week 16, 120 min", "result": "314 ± 54^bc"},
      {"measurement": "Level of OGTT (blood glucose)", "setting": "Ex 2 G5 db/db, DMH i.p. 0.2 mg/g bw/day, Week 18, 0 min", "result": "308 ± 51", "unit": "mg/dL"},
      {"measurement": "Level of OGTT (blood glucose)", "setting": "Ex 2 G5 db/db, DMH i.p. 0.2 mg/g bw/day, Week 18, 15 min", "result": "943 ± 43", "unit": "mg/dL"},
      {"measurement": "Level of OGTT (blood glucose)", "setting": "Ex 2 G5 db/db, DMH i.p. 0.2 mg/g bw/day, Week 18, 30 min", "result": "941 ± 53", "unit": "mg/dL"},
      {"measurement": "Level of OGTT (blood glucose)", "setting": "Ex 2 G5 db/db, DMH i.p. 0.2 mg/g bw/day, Week 18, 60 min", "result": "753 ± 70", "unit": "mg/dL"},
      {"measurement": "Level of OGTT (blood glucose)", "setting": "Ex 2 G5 db/db, DMH i.p. 0.2 mg/g bw/day, Week 18, 120 min", "result": "541 ± 63^bc"},
      {"measurement": "OGTT AUC", "setting": "Ex 2 G5 db/db, DMH i.p. 0.2 mg/g bw/day, week 6", "result": "916 ± 110^b"},
      {"measurement": "OGTT AUC", "setting": "Ex 2 G5 db/db, DMH i.p. 0.2 mg/g bw/day, week 12", "result": "1171 ± 117^bc"},
      {"measurement": "OGTT AUC", "setting": "Ex 2 G5 db/db, DMH i.p. 0.2 mg/g bw/day, week 16", "result": "1002 ± 88^bc"}
    ]}
  ]
}
